Laboratory results: patent US20070161655A1, “Fungicidal mixtures” (BASF Aktiengesellschaft, priority 2004, published 2007)

Test system: Corticium sasakii
Experiment: Activity against sheath blight on rice caused by Corticium sasakii (protective spray, rice plants cultivar Tai-Nong 67)
Type: in vivo
Conditions: individual active compound, evaluated after 11 days, untreated control 85% infection
Method: The active compounds, separately or jointly, were prepared as a stock solution comprising 0.25% by weight of active compound in acetone or DMSO. 1% by weight of the emulsifier Uniperol® EL (wetting agent having emulsifying and dispersing action based on ethoxylated alkylphenols) was added to this solution, and the mixture was appropriately diluted with water to the desired concentration.
Pots of rice plants of the cultivar “Tai-Nong 67” were sprayed to runoff point with an aqueous suspension having the concentration of active compound stated below. The next day, oat grains infected with Corticium sasakii were planted in the pots (in each case 5 grains per pot). The plants were then placed in a chamber at 26° C. and maximum atmospheric humidity. After 11 days, the sheath blight on the untreated but infected control plants had developed to such an extent that the infection could be determined visually in %.
Evaluation is carried out by determining the infected leaf areas in percent. These percentages were converted into efficacies.
The efficacy (E) is calculated as follows using Abbot's formula: E=(1−α/β)·100 • α corresponds to the fungal infection of the treated plants in % and • β corresponds to the fungal infection of the untreated (control) plants in %
An efficacy of 0 means that the infection level of the treated plants corresponds to that of the untreated control plants; an efficacy of 100 means that the treated plants are not infected.
The expected efficacies of the mixtures of active compounds are determined using Colby's formula [R. S. Colby, Weeds, 15, 20-22 (1967)] and are compared with the observed efficacies.
Colby's formula: E=x+y−x·y/100 • expected efficacy, expressed in % of the untreated control, when using the mixture of the active compounds A and B at the concentrations a and b • x efficacy, expressed in % of the untreated control, when using the active compound A at the concentration a
y efficacy, expressed in % of the untreated control, when using the active compound B at the concentration b

SMILES	Efficacy in % of the untreated control (4 ppm in the spray liquor) [%]	Efficacy in % of the untreated control (16 ppm in the spray liquor) [%]
CN(C)S(=O)(=O)N(SC(F)(Cl)Cl)c1ccccc1 [II (dichlofluanid), N-dichlorofluoromethylthio-N′,N′-dimethyl-N-phenylsulfonamide]	0	0
CC1CCN(c2c(-c3c(F)cc(F)cc3F)c(Cl)nc3ncnn23)CC1 [I, 5-chloro-7-(4-methylpiperidin-1-yl)-6-(2,4,6-trifluorophenyl)-[1,2,4]triazolo[1,5-a]pyrimidine]	30	65
